Four molecules from patent publication US4555513A, “1,2 Dihydro- and 1,2,3,4-tetrahydro quinolylacetic acids and analgesic use thereof” (priority 1982, dated 1985) can be followed below.

Data set [1] can be described thus: Acute toxicity (oral, mortality after 72 hours). As to conditions: mouse, in vivo. The method, then: Groups of 10 male dd mice weighing some 18 g were orally administered the examined drugs and the number of death p 72 hours later was recorded.
Data set [2] relates to dd mice. The data set can be described thus: Analgesic effects by a modified Haffner method. In kind it is in vivo, mouse (dd mice). To be noted: with morphine hydrochloride 2 mg/kg s.c. The method, then:
Group of 10 dd mice were orally administered the examined drugs and 30 minutes later 2 mg/kg of morphine hydrochloride, the threshold dose, was injected subcutaneously. At 15, 30, 45 and 60 minutes thereafter, the root of mouse's tail was squeezed with a Kocher's forceps.

For data set [3], the system named is dd mice. Nature of the data set: Analgesic effects by acetic acid writhing test. In kind it is in vivo, mouse (male dd mice). The method, then:
30 minutes after the examined drug was orally given, 0.1 ml/10 g of 0.6% acetic acid solution was intraperitoneally administered to group of 10 male dd mice weighing some 18 g. The number of stretching was calculted during an observation period of 15 to 20 minutes after acetic acid treatment. The average inhibition rate of stretching among 8 animals was regarded as the inhibition rate of the drug, excluding 2 animals showing maximum and minimum numbers of stretching.
(In writhing tests, fewer writhes than in controls are read as antinociception.)

[4] abbreviates: 400 mg/kg oral, 72 hours, read-out: Mortality.
The mark [5] stands for this setting: 800 mg/kg oral, 72 hours, read-out: Mortality.

Read-outs that look alike come from different tables or passages of the source.

The molecule `CCCCC1C(=O)N(c2ccccc2)N(c2ccccc2)C1=O` [Phenylbutazone, reference compound] displayed a mortality at 72 h in data set [1] (po, 600 mg/kg) of 100%.
As for `CC(C(=O)O)c1cc(Cl)c2c(c1)CCC(C)(C)N2` (stereo not drawn) [Compound 36, 2-(8-Chloro-1,2,3,4-tetrahydro-2,2-dimethylquinolin-6-yl)propionic acid], the mortality at 72 h was 0% in data set [1] (setting [4]) and 10% in data set [1] (setting [5]). Also, the Analgesic effects in data set [2] (100 mg/kg oral) turned out to be 30%; in data set [2] (200 mg/kg oral), 55%. Also, the figures for the “Analgesic effects (inhibition rate of stretching)” value in data set [3] (50 mg/kg oral), in data set [3] (100 mg/kg oral) and in data set [3] (150 mg/kg oral) were 36%, 61% and 73%, respectively.
Consider `CC(C(=O)O)c1cc(Cl)c2c(c1)C=CC(C)(C)N2` (stereo not drawn) [Compound 35, 2-(8-Chloro-1,2-dihydro-2,2-dimethylquinolin-6-yl)propionic acid], for which the figures for the mortality at 72 h in data set [1] (setting [4]) and in data set [1] (setting [5]) were 0% and 20%, respectively. Further, the results for the Analgesic effects in data set [2] (100 mg/kg oral) and in data set [2] (200 mg/kg oral) were 35% and 50%, respectively. Also, the results for the “Analgesic effects (inhibition rate of stretching)” value in data set [3] (50 mg/kg oral), in data set [3] (100 mg/kg oral) and in data set [3] (150 mg/kg oral) were 37%, 52% and 68%, respectively.
As for `Cc1c(N(C)C)c(=O)n(-c2ccccc2)n1C` [Aminopyrine, reference compound], the mortality at 72 h in data set [1] (setting [5]) stood at 100%. Also, the Analgesic effects in data set [2] (100 mg/kg oral) is given as 30%; in data set [2] (200 mg/kg oral), 35%. The “Analgesic effects (inhibition rate of stretching)” value came to 14% in data set [3] (50 mg/kg oral), 47% in data set [3] (100 mg/kg oral) and 60% in data set [3] (150 mg/kg oral).

Broadly, the mortality is the percentage killed.
